Laboratory results: ChEMBL document CHEMBL4304811, “Development of a Water-Soluble Indolylmaleimide Derivative IM-93 Showing Dual Inhibition of Ferroptosis and NETosis” (ACS Med Chem Lett, 2019)
Calls of active or inactive are those of the source. The calls are words filed in the database; no cut-off is given here.

How the values were obtained:
[1] = test system: HL-60; assay: Cytoprotection against human HL60 cells assessed as inhibition of H2O2-induced cell death pretreated for 1 hr followed by H2O2 stimulation measured after 3 hrs by p-iodonitrotetrazolium violet dye based LDH assay; format: functional
[2] = Aqueous solubility of compound in citrate-phosphate buffer at pH 7.0 after 30 mins by HPLC analysis; format: physicochemical
[3] = test system: Neutrophil; assay: Inhibition of PMA-induced NETosis in human neutrophils at […] preincubated for 30 mins followed by PMA stimulation and measured after 3.5 hrs by Hoechst […] staining based fluorescence microscopic analysis; format: functional, cell-based
[4] = test system: THP-1; assay: Inhibition of Staphylococcus aureus-induced pyroptosis in human THP1 cells at 10 uM preincubated for 1 hr followed by bacterial infection and measured after 2 hrs by INT dye based LDH assay; format: functional, cell-based
[5] = test system: THP-1; assay: Inhibition of Pseudomonas aeruginosa-induced pyroptosis in human THP1 cells at 10 uM preincubated for 1 hr followed by bacterial infection and measured after 2 hrs by INT dye based LDH assay; format: functional, cell-based
[6] = test system: NIH3T3; assay: Inhibition of erastin-induced ferroptosis in mouse NIH/3T3 cells after 24 hrs by WST-8 assay; format: functional, cell-based; conditions: NIH3T3, 24 h
[7] = test system: NIH3T3; assay: Inhibition of TBHP-induced ferroptosis in mouse NIH/3T3 cells after 12 hrs by WST-8 assay; format: functional, cell-based; conditions: NIH3T3, 12 h
[8] = test system: Neutrophil; assay: Inhibition of PMA-induced NETosis in human neutrophils at 100 uM preincubated for 30 mins followed by PMA stimulation and measured after 3 hrs by Hoechst […] staining based fluorescence microscopic analysis; format: functional, cell-based
[9] = test system: Neutrophil; assay: Inhibition of PMA-induced NETosis in human neutrophils assessed as effect on lipid peroxidation at 100 uM preincubated for 30 mins followed by PMA stimulation measured after 30 mins by C11-Bodipy fluorescent dye based flow cytometry; format: functional, cell-based
[10] = test system: Neutrophil; assay: Inhibition of PMA-induced superoxide production in C57BL6 mouse neutrophils at 100 uM preincubated for 30 mins followed by PMA stimulation and measured after 30 mins by luminol-lucignenin based luminescence assay; format: functional, cell-based
[11] = test system: Neutrophil; assay: Inhibition of PMA-induced NETosis in human neutrophils at 25 uM preincubated for 30 mins followed by PMA stimulation and measured after 3 hrs by Hoechst […] staining based fluorescence microscopic analysis; format: functional, cell-based
[12] = test system: Neutrophil; assay: Inhibition of PMA-induced NETosis in human neutrophils at 2.5 uM preincubated for 30 mins followed by PMA stimulation and measured after 3 hrs by Hoechst […] staining based fluorescence microscopic analysis; format: functional, cell-based
[13] = test system: Neutrophil; assay: Inhibition of PMA-induced superoxide production in C57BL6 mouse neutrophils at 2.5 uM preincubated for 30 mins followed by PMA stimulation and measured after 30 mins by luminol-lucignenin based luminescence assay; format: functional, cell-based
[14] = test system: Neutrophil; assay: Inhibition of PMA-induced NETosis in human neutrophils assessed as inhibition of ROS production at 25 uM pretreated for 25 mins followed by PMA stimulation and measured after 20 mins by DCFH-DA based flow cytometry; format: functional, cell-based
[15] = test system: Neutrophil; assay: Inhibition of PMA-induced NETosis in human neutrophils assessed as reduction in lipid peroxidation at 2.5 uM preincubated for 30 mins followed by PMA stimulation measured after 30 mins by C11-Bodipy fluorescent dye based flow cytometry; format: functional, cell-based

Row | Compound | IC50 [1] | other results
1 | CN1C(=O)C(NC2CCCCC2)=C(c2cn(C)c3ccccc23)C1=O | 1000 nM | –
2 | C[C@@H](NC1=C(c2cn(C)c3ccccc23)C(=O)N(C)C1=O)c1ccccc1 | 390 nM | –
3 | CN1C(=O)C(NCCN)=C(c2cn(C)c3ccccc23)C1=O.Cl | – | solubility at 0.5 h [2]: 71 mM
4 | CCCNC1=C(c2cn(C)c3ccccc23)C(=O)N(C2CCCC2)C1=O | 280 nM | –
5 | CN1C(=O)C(NCc2ccccc2)=C(c2cn(C)c3ccccc23)C1=O | 330 nM | –
6 | CCCNC1=C(c2cn(C)c3ccccc23)C(=O)N(C(c2ccccc2)(c2ccccc2)c2ccccc2)C1=O | 800 nM | –
7 | CCCCN1C(=O)C(NCCC)=C(c2cn(C)c3ccccc23)C1=O | 350 nM | –
8 | COc1cccc(CNC2=C(c3cn(C)c4ccccc34)C(=O)N(C)C2=O)c1 | 420 nM | –
9 | CN1C(=O)C(NCc2cccc(Cl)c2)=C(c2cn(C)c3ccccc23)C1=O | 280 nM | –
10 | CN(C)CCCNC1=C(c2cn(C)c3ccccc23)C(=O)N(C)C1=O | 610 nM | –
11 | C[C@H](NC1=C(c2cn(C)c3ccccc23)C(=O)N(C)C1=O)c1ccccc1 | 510 nM | –
12 | CN1C(=O)C(NC(C)(C)C)=C(c2cn(C)c3ccccc23)C1=O | 880 nM | –
13 | CN1C(=O)C(NCCc2ccccc2)=C(c2cn(C)c3ccccc23)C1=O | 650 nM | –
14 | COc1ccccc1CNC1=C(c2cn(C)c3ccccc23)C(=O)N(C)C1=O | 480 nM | –
15 | CCCNC1=C(c2cn(C)c3ccccc23)C(=O)N(Cc2ccccc2)C1=O | 450 nM | –
16 | CN1C(=O)C(NC2CCCC2)=C(c2cn(C)c3ccccc23)C1=O | 300 nM | –
17 | COc1ccc(CNC2=C(c3cn(C)c4ccccc34)C(=O)N(C)C2=O)cc1 | 860 nM | –
18 | CN1C(=O)C(NCc2ccc(Cl)cc2)=C(c2cn(C)c3ccccc23)C1=O | 310 nM | –
19 | CCCNC1=C(c2cn(C)c3ccccc23)C(=O)N(CC)C1=O | 750 nM | –
20 | CN1C(=O)C(NCc2ccccc2Cl)=C(c2cn(C)c3ccccc23)C1=O | 1700 nM | –
21 | CC(=O)N[C@@H](CS)C(=O)O | – | inhibition [3]: inactive

Row | Compound | IC50 [1] | other results
22 | CN(C)C1=C(c2cn(C)c3ccccc23)C(=O)N(C)C1=O | 4300 nM | –
23 | CN1C(=O)C(NCc2cccnc2)=C(c2cn(C)c3ccccc23)C1=O | 1300 nM | –
24 | CCCCCCCCCCCCCN1C(=O)C(NCCC)=C(c2cn(C)c3ccccc23)C1=O | 400 nM | –
25 | CN1C(=O)C(NC2CC2)=C(c2cn(C)c3ccccc23)C1=O | 3800 nM | –
26 | CCCNC(=O)[C@H]1O[C@@H]1C(=O)N[C@H](C(=O)N1CCC[C@H]1C(=O)OC)[C@@H](C)CC | – | inhibition [4]: Active; inhibition [5]: Active
27 | CCCNC1=C(c2cn(C)c3ccccc23)C(=O)N(C(CC)CC)C1=O | 480 nM | –
28 | CN1C(=O)C(N)=C(c2cn(C)c3ccccc23)C1=O | 4500 nM | –
29 | CN1C(=O)C(NCc2ccncc2)=C(c2cn(C)c3ccccc23)C1=O | 1200 nM | –
30 | CN1C(=O)C(NCc2ccco2)=C(c2cn(C)c3ccccc23)C1=O | 710 nM | –
31 | CCCCCN1C(=O)C(NCCC)=C(c2cn(C)c3ccccc23)C1=O | 320 nM | –
32 | CC(=O)N(O)CCCCCNC(=O)CCC(=O)N(O)CCCCCNC(=O)CCC(=O)N(O)CCCCCN [DEFEROXAMINE] | – | IC50 [6]: 4900 nM; IC50 [7]: 9000 nM; inhibition [8]: inactive; Activity [9]: inactive; inhibition [10]: inactive
33 | CCCNC1=C(c2cn(C)c3ccccc23)C(=O)N(CCC)C1=O | 610 nM | –
34 | CCCNC1=C(c2cn(C)c3ccccc23)C(=O)N(C(C)C)C1=O | 34 nM | –
35 | CCOC(=O)c1ccc(NC2CCCCC2)c(N)c1 | – | IC50 [6]: 270 nM; IC50 [7]: 220 nM; inhibition [11]: inactive; inhibition [12]: inactive; inhibition [13]: inactive; inhibition [14]: inactive; inhibition [15]: Active
36 | CC(C)NC1=C(c2cn(C)c3ccccc23)C(=O)N(C)C1=O | 480 nM | –
37 | CN1C(=O)C(NC(c2ccccc2)c2ccccc2)=C(c2cn(C)c3ccccc23)C1=O | 1200 nM | –
38 | CN(C)CCNC1=C(c2cn(C)c3ccccc23)C(=O)N(C)C1=O | 760 nM | –
39 | CN1C(=O)C(c2cn(C)c3ccccc23)=C(N2CCCC2)C1=O | 4700 nM | –
40 | CN1C(=O)C(NCC2CCCCC2)=C(c2cn(C)c3ccccc23)C1=O | 390 nM | –
41 | CN1C(=O)C(NCc2ccccn2)=C(c2cn(C)c3ccccc23)C1=O | 1300 nM | –
42 | CCCCCNC1=C(c2cn(C)c3ccccc23)C(=O)N(C)C1=O | – | solubility at 0.5 h [2]: < 0.001 mM
